# Measured values from patent US10562920B2, “Ln(III) and Ga(III) metallacrown complexes” (The Regents of the University of Michigan, priority 2015, dated 2020).
# Where “and” joins values, the source holds several entries; their conditions need not be identical. Equal values may be shown once. Marks after values point to notes of the source that are not given here.
# Experiment: Quantum yields by absolute method using an integration sphere
# Format: physicochemical
# Details: Ga4Ln(shi)4, CD3OD
# Method: (§1) Luminescence data were collected on samples placed into 2.4 mm i.d. quartz capillaries or quartz Suprasil cells. Emission and excitation spectra were measured on a Horiba-Jobin-YvonFluorolog 3 spectrofluorimeter equipped with either a visible photomultiplier tube (PMT) (220-800 nm, R928P; Hamamatsu), a NIR solid-state InGaAs detector cooled to 77 K (800-1600 nm, DSS-IGA020L; Jobin-Yvon), or NIR PMTs (950-1450 nm, H10330-45; 950-1650 nm, H10330-75; Hamamatsu). All spectra were corrected for instrumental functions. Luminescence lifetimes were determined under excitation at 355 nm provided by a Nd:YAG laser (YG 980; Quantel), while the signal was detected in the NIR by the aforementioned PMT (H10330-75). The output signal from the detectors was then fed to a 500 MHz bandpass digital oscilloscope (TDS 754C; Tektronix) and then transferred to a PC for treatment with Origin 8®. Luminescence lifetimes are averages of at least three independent measurements. Quantum yields were determined with a Fluorolog 3 spectrofluorimeter according to an absolute method using an integration sphere (GMP SA). Each sample was measured several times under slightly different experimental conditions. Estimated experimental error for quantum yields determination is 10%.
QLn^L (%) (NIR),QLn^L (%) (visible),Substance
4.5(3)·10^−2%,,[ErGa4(shi)4(C6H5CO2)4(C5H5N)(CH3OH)].C5H6N.0.5C5H5N [Ga4Er(shi)4]
6.0(1) · 10^−2%,0.78(1) %,[Ga4Dy(shi)4(C6H5CO2)4(C5H5N)(CH3OH)].C5H6N.C5H5N.CH3OH
0.298(1) %,2.33(5) %,[Ga4Sm(shi)4(C6H5CO2)4(C5H5N)(CH3OH)].C5H6N.C5H5N.CH3OH
,28.6(1) %,[Ga4Tb(shi)4(C6H5CO2)4(C5H5N)(CH3OH)].C5H6N.C5H5N.CH3OH
4.29(1) %,,[YbGa4(shi)4(C6H5CO2)4(C5H5N)(CH3OH)].C5H6N.C5H5N.CH3OH [Ga4Yb(shi)4]

# Same assay, conditions: Ga4Ln(shi)4, CH3OH
QLn^L (%) (NIR),QLn^L (%) (visible),Substance
2.4(1) · 10^−2%,0.38(1) %,[Ga4Dy(shi)4(C6H5CO2)4(C5H5N)(CH3OH)].C5H6N.C5H5N.CH3OH
2.65(6) · 10^−2%,0.252(1) %,[Ga4Sm(shi)4(C6H5CO2)4(C5H5N)(CH3OH)].C5H6N.C5H5N.CH3OH
,23.7(3) %,[Ga4Tb(shi)4(C6H5CO2)4(C5H5N)(CH3OH)].C5H6N.C5H5N.CH3OH
0.26(1) %,,[YbGa4(shi)4(C6H5CO2)4(C5H5N)(CH3OH)].C5H6N.C5H5N.CH3OH [Ga4Yb(shi)4]

# Same assay, conditions: Ga4Ln(shi)4, Solid
QLn^L (%) (NIR),QLn^L (%) (visible),Substance
4.4(1)·10^−2%,,[ErGa4(shi)4(C6H5CO2)4(C5H5N)(CH3OH)].C5H6N.0.5C5H5N [Ga4Er(shi)4]
0.21(1) %,2.10(1) %,[Ga4Dy(shi)4(C6H5CO2)4(C5H5N)(CH3OH)].C5H6N.C5H5N.CH3OH
,1.59(4) · 10^−2%,[Ga4Eu(shi)4(C6H5CO2)4(C5H5N)(CH3OH)].C5H6N.C5H5N.CH3OH
0.450(4) %,2.46(8) %,[Ga4Sm(shi)4(C6H5CO2)4(C5H5N)(CH3OH)].C5H6N.C5H5N.CH3OH
,34.7% and 34.7(1) %,[Ga4Tb(shi)4(C6H5CO2)4(C5H5N)(CH3OH)].C5H6N.C5H5N.CH3OH
2.0(2)·10^−3%,,[HoGa4(shi)4(C6H5CO2)4(C5H5N)(CH3OH)].C5H6N.C5H5N.CH3OH [Ga4Ho(shi)4]
,0.02(1)^f %,[TmGa4(shi)4(C6H5CO2)4(C5H5N)(CH3OH)].C5H6N.0.5C5H5N [Ga4Tm(shi)4]
5.88(2) %,,[YbGa4(shi)4(C6H5CO2)4(C5H5N)(CH3OH)].C5H6N.C5H5N.CH3OH [Ga4Yb(shi)4]

# Same assay, conditions: Ga6Ln(shi)9, solid state
row,QLn^L/%,Substance
1,7.1(2) · 10^−3%,[ErGa6(shi)7(Hshi)(H2shi)(C6H16N)3(C5H5N)2].6H2O [Ga6Er(shi)9]
2,1.1(2) · 10^−3%,[HoGa6(shi)7(Hshi)(H2shi)(C6H16N)3(C5H5N)2].8H2O [Ga6Ho(shi)9]
3,0.171(5) %,[NdGa6(shi)7(Hshi)(H2shi)(C6H16N)3(C5H5N)2].7H2O [Ga6Nd(shi)9]
4,3.7(2) · 10^−3%,[PrGa6(shi)7(Hshi)(H2shi)(C6H16N)3(C5H5N)2].4H2O [Ga6Pr(shi)9]
5,1.64(9) %,[SmGa6(shi)7(Hshi)(H2shi)(C6H16N)3(C5H5N)2].6H2O [Ga6Sm(shi)9]
6,0.189(3) %,[TbGa6(shi)7(Hshi)(H2shi)(C6H16N)3(C5H5N)2] [Ga6Tb(shi)9]
7,0.65(3) %,[YbGa6(shi)7(Hshi)(H2shi)(C6H16N)3(C5H5N)2].8H2O [Ga6Yb(shi)9]

# Experiment: Ligand triplet state from phosphorescence of Gd3+ analogues
# Format: physicochemical
# Details: T1 = 22 170 cm^−1; Ga4Ln(shi)4
# Method: as §1
# Phosphorescence can be observed by recording the signal emitted from Ga4Gd(shi)4 in time-resolved mode in the solid state at 77K upon excitation at 350 nm and using a 200 μS delay after the excitation flash (FIG. 9). The 0-0 component of this band represents the energy level of the ligand's triplet state (T1=22,170 cm^−1, 451 nm) which is attributed to the energy level responsible for the main contribution of the transfer to the Ln^3+. The T1 level is sufficiently high in energy to populate the excited states of a wide range of visible and NIR-emitting Ln^3+.
# Since the Ga8Ln2(shi)8 dimer compounds were insoluble in all solvents, the solid state photophysical data alone were collected. As with the Ga4Gd(shi)4 compound, the Ga8Gd2(shi)8 complex may be used to examine the ligand-based photophysical properties. […] The solid state ligand phosphorescence was obtained at 77 K using an excitation wavelength of 350 nm and a 100 μs delay (FIG. 11). The profile of the phosphorescence is similar to that of Ga4Gd(shi)4 (FIG. 9), which was expected, since both compounds are formed by the same framework ligand, H3shi. The 0-0 transition was determined to be located at 455 nm, or 21 978 cm^−1. This triplet state energy is slightly lower than that of the Ga4Gd(shi)4 compound (22 170 cm^−1), but still is sufficiently high in energy to sensitize visible (Dy^3+, Tb^3+, Sm^3+) and/or NIR emitting (Dy^3+, Sm^3+, Ho^3+, Yb^3+, Pr^3+, Nd^3+, Er^3+) lanthanides.
row,"ΔE (cm^−1), energy gap between ligand triplet state and Ln3+ emissive state",Substance
1,15 470 cm^−1,[ErGa4(shi)4(C6H5CO2)4(C5H5N)(CH3OH)].C5H6N.0.5C5H5N [Ga4Er(shi)4]
2,1 070 cm^−1,[Ga4Dy(shi)4(C6H5CO2)4(C5H5N)(CH3OH)].C5H6N.C5H5N.CH3OH
3,4 910 cm^−1,[Ga4Eu(shi)4(C6H5CO2)4(C5H5N)(CH3OH)].C5H6N.C5H5N.CH3OH
4,4 270 cm^−1,[Ga4Sm(shi)4(C6H5CO2)4(C5H5N)(CH3OH)].C5H6N.C5H5N.CH3OH
5,1 770 cm^−1,[Ga4Tb(shi)4(C6H5CO2)4(C5H5N)(CH3OH)].C5H6N.C5H5N.CH3OH
6,6 670 cm^−1,[HoGa4(shi)4(C6H5CO2)4(C5H5N)(CH3OH)].C5H6N.C5H5N.CH3OH [Ga4Ho(shi)4]
7,820 cm⁻¹,[TmGa4(shi)4(C6H5CO2)4(C5H5N)(CH3OH)].C5H6N.0.5C5H5N [Ga4Tm(shi)4]
8,11 870 cm^−1,[YbGa4(shi)4(C6H5CO2)4(C5H5N)(CH3OH)].C5H6N.C5H5N.CH3OH [Ga4Yb(shi)4]

# Experiment: Hydration number q from lifetimes in deuterated and protic solvents
# Format: physicochemical
# Details: from kCH3OH − kCD3OD, equations of footnotes b, c, e, g
# Source text: One parameter that can be obtained from the recording of luminescence lifetimes is the hydration number q. […] This non-zero q value is particularly detrimental for the intensity of the luminescence (and to the corresponding quantum yield values) of NIR-emitting lanthanides since the overtones of high-energy vibrations of the solvent molecules create a route for non-radiative deactivation.
row,q (hydration number),Substance
1,0.7^e,[Ga4Dy(shi)4(C6H5CO2)4(C5H5N)(CH3OH)].C5H6N.C5H5N.CH3OH
2,0.8^b,[Ga4Sm(shi)4(C6H5CO2)4(C5H5N)(CH3OH)].C5H6N.C5H5N.CH3OH
3,1.2^c,[Ga4Tb(shi)4(C6H5CO2)4(C5H5N)(CH3OH)].C5H6N.C5H5N.CH3OH
4,0.7^g,[YbGa4(shi)4(C6H5CO2)4(C5H5N)(CH3OH)].C5H6N.C5H5N.CH3OH [Ga4Yb(shi)4]

# Same assay, conditions: qTb = 10.0 × (kCH3OH − kCD3OD − 0.06), footnote d
row,Substance,q (hydration number)
1,[Ga4Tb(shi)4(C6H5CO2)4(C5H5N)(CH3OH)].C5H6N.C5H5N.CH3OH,0.9^d

# Experiment: Luminescence lifetimes under excitation at 355 nm
# Format: physicochemical
# Details: Ga4Ln(shi)4, CD3OD
# Method: as §1
row,τobs (μs),Substance
1,1.74(1) μs,[ErGa4(shi)4(C6H5CO2)4(C5H5N)(CH3OH)].C5H6N.0.5C5H5N [Ga4Er(shi)4]
2,25.5(7) μs,[Ga4Dy(shi)4(C6H5CO2)4(C5H5N)(CH3OH)].C5H6N.C5H5N.CH3OH
3,255(1) μs,[Ga4Sm(shi)4(C6H5CO2)4(C5H5N)(CH3OH)].C5H6N.C5H5N.CH3OH
4,1960(10) μs,[Ga4Tb(shi)4(C6H5CO2)4(C5H5N)(CH3OH)].C5H6N.C5H5N.CH3OH
5,36.6(1) μs,[YbGa4(shi)4(C6H5CO2)4(C5H5N)(CH3OH)].C5H6N.C5H5N.CH3OH [Ga4Yb(shi)4]

# Same assay, conditions: Ga4Ln(shi)4, CH3OH
row,τobs (μs),Substance
1,12.0(1) μs,[Ga4Dy(shi)4(C6H5CO2)4(C5H5N)(CH3OH)].C5H6N.C5H5N.CH3OH
2,27.6(1) μs,[Ga4Sm(shi)4(C6H5CO2)4(C5H5N)(CH3OH)].C5H6N.C5H5N.CH3OH
3,1510(10) μs,[Ga4Tb(shi)4(C6H5CO2)4(C5H5N)(CH3OH)].C5H6N.C5H5N.CH3OH
4,2.06(4) μs,[YbGa4(shi)4(C6H5CO2)4(C5H5N)(CH3OH)].C5H6N.C5H5N.CH3OH [Ga4Yb(shi)4]

# Same assay, conditions: Ga4Ln(shi)4, Solid
row,τobs (μs),Substance
1,6.75(3) μs,[ErGa4(shi)4(C6H5CO2)4(C5H5N)(CH3OH)].C5H6N.0.5C5H5N [Ga4Er(shi)4]
2,21.2(2) μs,[Ga4Dy(shi)4(C6H5CO2)4(C5H5N)(CH3OH)].C5H6N.C5H5N.CH3OH
3,148(1) μs,[Ga4Sm(shi)4(C6H5CO2)4(C5H5N)(CH3OH)].C5H6N.C5H5N.CH3OH
4,1080(10) μs,[Ga4Tb(shi)4(C6H5CO2)4(C5H5N)(CH3OH)].C5H6N.C5H5N.CH3OH
5,0.029(1) μs,[HoGa4(shi)4(C6H5CO2)4(C5H5N)(CH3OH)].C5H6N.C5H5N.CH3OH [Ga4Ho(shi)4]
6,1.47(1) μs,[TmGa4(shi)4(C6H5CO2)4(C5H5N)(CH3OH)].C5H6N.0.5C5H5N [Ga4Tm(shi)4]
7,55.7(3) μs,[YbGa4(shi)4(C6H5CO2)4(C5H5N)(CH3OH)].C5H6N.C5H5N.CH3OH [Ga4Yb(shi)4]

# Same assay, conditions: Ga6Ln(shi)9, solid state
row,τ/μs,Substance
1,0.905(8) μs,[ErGa6(shi)7(Hshi)(H2shi)(C6H16N)3(C5H5N)2].6H2O [Ga6Er(shi)9]
2,0.037(1) μs,[HoGa6(shi)7(Hshi)(H2shi)(C6H16N)3(C5H5N)2].8H2O [Ga6Ho(shi)9]
3,0.71(1) μs,[NdGa6(shi)7(Hshi)(H2shi)(C6H16N)3(C5H5N)2].7H2O [Ga6Nd(shi)9]
4,0.063(1) μs,[PrGa6(shi)7(Hshi)(H2shi)(C6H16N)3(C5H5N)2].4H2O [Ga6Pr(shi)9]
5,70(1) μs,[SmGa6(shi)7(Hshi)(H2shi)(C6H16N)3(C5H5N)2].6H2O [Ga6Sm(shi)9]
6,7.26(2) μs,[YbGa6(shi)7(Hshi)(H2shi)(C6H16N)3(C5H5N)2].8H2O [Ga6Yb(shi)9]
